Data: US10508120B2, “TYK2 inhibitors and uses thereof” (Nimbus Lakshmi, Inc., priority 2017, dated 2019)

How the values were obtained:
[1] = biological target: human TYK2 (JH2domain-pseudokinase) (Homo sapiens (Human), UniProt P29597); assay: TYK2 JH2 Domain Binding Assay (KINOMEscan)
How it was run: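 Displacement of a DNA-tagged TYK2 JH2 fusion (human, aa G556–D888, HEK293 extract, <0.1 nM) from ligand-coated beads over 1 h at RT; binding buffer PBS/0.05% Tween 20/10 mM DTT/0.1% BSA.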

Tyk2 kinase domain (DH1) = Tyk2 kinase domain (DH1) (Homo sapiens (Human), UniProt P29597); assay: Tyk2 Radioactive Kinase Assay; type: biochemical; details: 10 μM compound, 10 μM ATP; for inhibition at 10 µM: read-out: Tyk2 JH1% Inhibition @ 10 μM
Tyk2 kinase domain (DH1), sequence (P29597 897-1176): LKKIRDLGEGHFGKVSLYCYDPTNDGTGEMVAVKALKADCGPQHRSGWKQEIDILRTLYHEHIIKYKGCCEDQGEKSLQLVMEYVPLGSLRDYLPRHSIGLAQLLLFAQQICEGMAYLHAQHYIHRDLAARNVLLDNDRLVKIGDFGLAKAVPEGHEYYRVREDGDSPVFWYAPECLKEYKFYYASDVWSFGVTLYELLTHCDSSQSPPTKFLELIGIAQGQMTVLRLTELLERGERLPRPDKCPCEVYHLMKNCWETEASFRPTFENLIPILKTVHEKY
How it was run: (§1)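 Compounds were tested at a single concentration of 10 μM in a radiometric kinase format against each isolated kinase domain. Activity is reported as percent inhibition at that concentration.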

JAK2 kinase domain (JH1) = JAK2 kinase domain (JH1) (Homo sapiens (Human), UniProt O60674); assay: JAK2 Radioactive Kinase Assay; type: biochemical; details: 10 μM compound, 10 μM ATP; for inhibition at 10 µM: read-out: JAK2 JH1% Inhibition @ 10 μM
JAK2 kinase domain (JH1), sequence (O60674 849-1124): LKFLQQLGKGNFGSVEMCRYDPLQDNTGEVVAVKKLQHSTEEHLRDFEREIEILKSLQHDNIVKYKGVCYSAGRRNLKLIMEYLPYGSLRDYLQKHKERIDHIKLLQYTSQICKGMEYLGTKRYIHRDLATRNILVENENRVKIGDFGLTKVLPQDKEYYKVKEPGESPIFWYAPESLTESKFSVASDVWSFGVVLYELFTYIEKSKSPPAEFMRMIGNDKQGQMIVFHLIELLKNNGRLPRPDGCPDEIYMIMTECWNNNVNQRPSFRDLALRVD
How it was run: as §1

human TYK2 (JH2domain-pseudokinase), sequence (P29597 556-888): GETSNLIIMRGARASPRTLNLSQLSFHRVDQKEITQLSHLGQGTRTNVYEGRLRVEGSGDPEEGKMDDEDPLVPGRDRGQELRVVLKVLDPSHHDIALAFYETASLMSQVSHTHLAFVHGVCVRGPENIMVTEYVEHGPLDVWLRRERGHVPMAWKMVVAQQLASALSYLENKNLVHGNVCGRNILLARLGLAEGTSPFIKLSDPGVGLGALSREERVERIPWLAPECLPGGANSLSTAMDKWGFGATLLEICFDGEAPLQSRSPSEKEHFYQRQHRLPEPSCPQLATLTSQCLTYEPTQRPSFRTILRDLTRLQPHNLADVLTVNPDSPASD

SMILES | Kd [1] [nM] | inhibition at 10 µM (Tyk2 kinase domain (DH1)) [%] | inhibition at 10 µM (JAK2 kinase domain (JH1)) [%] | Tyk2 JH1% Inhibition @ 10 μM (Tyk2 kinase domain (DH1)) | JAK2 JH1% Inhibition @ 10 μM (JAK2 kinase domain (JH1))
CNc1cc(Nc2cccn([C@H]3CCCC[C@H]3OC)c2=O)nc2c(C(=O)NCC3(CO)CC3)cnn12 [I-1047] | 0.2 to 1 | < 50 | < 50 | – | –
CNc1cc(Nc2cccn([C@@H]3CCC[C@H](OC)C3)c2=O)nc2c(C(=O)N[C@@H]3CC[C@H]3O)cnn12 [I-1054] | < 0.2 | < 50 | < 50 | – | –
CNc1cc(Nc2cccn([C@@H]3CCC[C@H](OC)C3)c2=O)nc2c(C(=O)N[C@H]3CC[C@@H]3O)cnn12 [I-1055] | 0.2 to 1 | < 50 | < 50 | – | –
CNc1cc(Nc2cccn([C@H]3CCCC[C@H]3O)c2=O)nc2c(C(=O)N[C@H]3CC[C@@H]3OC)cnn12 [I-1058] | 0.2 to 1 | < 50 | < 50 | – | –
CNc1cc(Nc2cccn([C@H]3C[C@@H]3F)c2=O)nc2c(C(=O)NCC(C)(C)CO)cnn12 [I-1060] | < 0.2 | < 50 | < 50 | – | –
CNc1cc(Nc2cccn([C@@H]3CCC[C@@H](O)C3)c2=O)nc2c(C(=O)N[C@H]3CC[C@@H]3OC)cnn12 [I-1064] | < 0.2 | < 50 | < 50 | – | –
CNc1cc(-c2cn(C3CCOCC3)c3ncccc23)nc2c(C(=O)N[C@H]3CC[C@@H]3OC)cnn12 [I-1065] | < 0.2 | < 50 | < 50 | – | –
CNc1cc(Nc2cc(Cl)cn(C3CCOCC3)c2=O)nc2c(C(=O)N[C@H]3CC[C@H]3O)cnn12 [I-1068] | < 0.2 | < 50 | < 50 | – | –
CNc1cc(Nc2cc(Cl)cn(C3CCOCC3)c2=O)nc2c(C(=O)N[C@@H]3CC[C@@H]3O)cnn12 [I-1069] | 0.2 to 1 | < 50 | < 50 | – | –
CNc1cc(Nc2cccn(-c3ncc(C)s3)c2=O)nc2c(C(=O)N[C@H]3CC[C@@H]3O)cnn12 [I-1071] | 1 to 10 | < 50 | < 50 | – | –
CNc1cc(Nc2cccn(-c3ncc(C)s3)c2=O)nc2c(C(=O)N[C@H]3CC[C@H]3O)cnn12 [I-1072] | < 0.2 | < 50 | < 50 | – | –
CNc1cc(Nc2cccn(-c3ccccc3F)c2=O)nc2c(C(=O)NC[C@@H](C)CO)cnn12 [I-1076] | < 0.2 | < 50 | < 50 | – | –
CNc1cc(Nc2cccn(-c3ccccc3F)c2=O)nc2c(C(=O)NC[C@H](C)CO)cnn12 [I-1077] | 0.2 to 1 | < 50 | < 50 | – | –
CNc1cc(Nc2cccn(C(C)C)c2=O)nc2c(C(=O)N[C@H]3CCC[C@H](O)C3)cnn12 [I-1078] | < 0.2 | < 50 | < 50 | – | –
CNc1cc(Nc2cccn(C(C)C)c2=O)nc2c(C(=O)N[C@@H]3CCC[C@@H](O)C3)cnn12 [I-1079] | 0.2 to 1 | < 50 | < 50 | – | –
CNc1cc(-c2cn(C3CC3)c3ncccc23)nc2c(C(=O)N[C@H]3CC[C@H]3O)cnn12 [I-1080, 5-(1-cyclopropyl-1H-pyrrolo[2,3-b]pyridin-3-yl)-N-((1S,2R)-2-hydroxycyclobutyl)-7-(methylamino)pyrazolo[1,5-a]pyrimidine-3-carboxamide] | < 0.2 | < 50 | < 50 | – | –
CNc1cc(-c2cn(C3CC3)c3ncccc23)nc2c(C(=O)N[C@@H]3CC[C@@H]3O)cnn12 [I-1081, 5-(1-cyclopropyl-1H-pyrrolo[2,3-b]pyridin-3-yl)-N-((1R,2S)-2-hydroxycyclobutyl)-7-(methylamino)pyrazolo[1,5-a]pyrimidine-3-carboxamide] | 0.2 to 1 | < 50 | < 50 | – | –
CNc1cc(Nc2cccn([C@@H]3CCC[C@H](OC)C3)c2=O)nc2c(C(=O)N[C@H]3CC[C@@H]3OC)cnn12 [I-1083] | 1 to 10 | < 50 | < 50 | – | –
CNc1cc(Nc2cccn([C@@H]3CCC[C@@H](OC)C3)c2=O)nc2c(C(=O)NCC3(CO)CC3)cnn12 [I-1087] | < 0.2 | < 50 | < 50 | – | –
CNc1cc(Nc2cccn([C@@H]3C[C@H]3F)c2=O)nc2c(C(=O)N[C@H]3CC[C@H]3O)cnn12 [I-1089] | < 0.2 | < 50 | < 50 | – | –
CNc1cc(Nc2cccn([C@@H]3C[C@H]3F)c2=O)nc2c(C(=O)N[C@@H]3CC[C@H]3O)cnn12 [I-1091] | < 0.2 | < 50 | < 50 | – | –
CNc1cc(Nc2cccn([C@H]3C[C@@H]3F)c2=O)nc2c(C(=O)N[C@@H]3CC[C@H]3O)cnn12 [I-1092] | 0.2 to 1 | < 50 | < 50 | – | –
CNc1cc(Nc2cccn([C@@H]3CCC[C@@H]3O)c2=O)nc2c(C(=O)N[C@H]3CC[C@@H]3OC)cnn12 [I-1100] | 0.2 to 1 | < 50 | < 50 | – | –
CNc1cc(Nc2cccn([C@H]3CC[C@H]3O)c2=O)nc2c(C(=O)NC3CC3)cnn12 [I-1103] | 1 to 10 | < 50 | < 50 | – | –
CNc1cc(Nc2cccn([C@@H]3CC[C@@H]3O)c2=O)nc2c(C(=O)NC3CC3)cnn12 [I-1104] | < 0.2 | < 50 | < 50 | – | –
CNc1cc(Nc2cccn([C@H]3CC[C@](C)(OC)CC3)c2=O)nc2c(C(=O)N[C@@H]3CC[C@H]3OC)cnn12 [I-1106] | 1 to 10 | < 50 | < 50 | – | –

The next lines start with results.

Kd [1] [nM] | inhibition at 10 µM (Tyk2 kinase domain (DH1)) [%] | inhibition at 10 µM (JAK2 kinase domain (JH1)) [%] | SMILES | Tyk2 JH1% Inhibition @ 10 μM (Tyk2 kinase domain (DH1)) | JAK2 JH1% Inhibition @ 10 μM (JAK2 kinase domain (JH1))
< 0.2 | < 50 | < 50 | CNc1cc(Nc2cccn([C@H]3CC[C@](C)(OC)CC3)c2=O)nc2c(C(=O)N[C@H]3CC[C@@H]3O)cnn12 [I-1108] | – | –
< 0.2 | < 50 | < 50 | CNc1cc(Nc2cccn([C@H]3CC[C@]4(CCCO4)CC3)c2=O)nc2c(C(=O)NC3CC3)cnn12 [I-1109] | – | –
< 0.2 | < 50 | < 50 | CNc1cc(Nc2cccn([C@@H]3CC[C@@H]3O)c2=O)nc2c(C(=O)N[C@@H]3C[C@@H]3F)cnn12 [I-1110] | – | –
< 0.2 | < 50 | < 50 | CNc1cc(-c2cn(C3CCOCC3)c3ncccc23)nc2c(C(=O)N[C@H]3CC[C@H]3O)cnn12 [I-1113] | – | –
0.2 to 1 | < 50 | < 50 | CNc1cc(-c2cn(C3CCOCC3)c3ncccc23)nc2c(C(=O)N[C@@H]3CC[C@@H]3O)cnn12 [I-1114] | – | –
1 to 10 | < 50 | < 50 | CNc1cc(Nc2cccc3ocnc23)nc2c(C(=O)N[C@H]3CC[C@@H]3OC)cnn12 [I-1115] | – | –
< 0.2 | < 50 | < 50 | CNc1cc(Nc2cccn(C3CCCCC3)c2=O)nc2c(C(=O)NC[C@@H](C)CO)cnn12 [I-1119] | – | –
0.2 to 1 | < 50 | < 50 | CNc1cc(Nc2cccn(C3CCCCC3)c2=O)nc2c(C(=O)NC[C@H](C)CO)cnn12 [I-1120] | – | –
0.2 to 1 | < 50 | < 50 | CNc1cc(Nc2cccn([C@@H]3C[C@H]3F)c2=O)nc2c(C(=O)NCC3(CO)CC3)cnn12 [I-1122, 5-((1-((1R,2R)-2-fluorocyclopropyl)-2-oxo-1,2-dihydropyridin-3-yl)amino)-N-((1-(hydroxymethyl)cyclopropyl)methyl)-7-(methylamino)pyrazolo[1,5-a]pyrimidine-3-carboxamide] | – | –
< 0.2 | < 50 | < 50 | CNc1cc(Nc2cccn([C@H]3CCC[C@@H](OC)C3)c2=O)nc2c(C(=O)N[C@@H]3CC[C@H]3O)cnn12 [I-1123] | – | –
< 0.2 | < 50 | < 50 | CNc1cc(Nc2cccn([C@H]3CCC[C@@H](OC)C3)c2=O)nc2c(C(=O)N[C@H]3CC[C@@H]3O)cnn12 [I-1124] | – | –
> 10 | < 50 | < 50 | CNc1cc(Nc2cccn([C@H]3CCC[C@@H](OC)C3)c2=O)nc2c(C(=O)N[C@H]3CC[C@@H]3OC)cnn12 [I-1125] | – | –
< 0.2 | < 50 | < 50 | CNc1cc(Nc2cccn([C@H]3CCC[C@@H](OC)C3)c2=O)nc2c(C(=O)N[C@@H]3CC[C@H]3OC)cnn12 [I-1126] | – | –
> 10 | – | – | CNc1cc(Nc2cccn([C@@H]3CCCC[C@@H]3OC)c2=O)nc2c(C(=O)N[C@H]3CC[C@@H]3OC)cnn12 [I-1127] | A (percent inhibition at 10 μM lower than 50) | A (percent inhibition at 10 μM lower than 50)
1 to 10 | < 50 | < 50 | CNc1cc(Nc2cccn([C@@H]3CCCC[C@@H]3OC)c2=O)nc2c(C(=O)N[C@@H]3CC[C@H]3OC)cnn12 [I-1128] | – | –
1 to 10 | – | – | CNc1cc(Nc2cccn([C@@H]3CCC[C@@H](O)C3)c2=O)nc2c(C(=O)N[C@H]3CC[C@@H]3OC)cnn12 [I-1129] | A (percent inhibition at 10 μM lower than 50) | A (percent inhibition at 10 μM lower than 50)
< 0.2 | < 50 | < 50 | CNc1cc(Nc2cccn([C@@H]3CCC[C@@H](O)C3)c2=O)nc2c(C(=O)N[C@@H]3CC[C@H]3OC)cnn12 [I-1130] | – | –
